According to patent publication US20050130909A1 (priority 2002, published 2005):
Several values for one entry are separate records, joined by “and”; a condition that tells them apart may be missing. Identical values can stand only once.

How the values were obtained:
dipeptide (D-Ala-D-Ala) = experiment: ITC, preliminary experiments; assay type: binding; conditions: absence of serum proteins
[1] = Pharmacokinetics and renal excretion in healthy subjects; assay type: in vivo, human
Experimental: Blood samples were drawn into heparinized tubes and centrifuged. Plasma was separated and stored frozen at −20° C. until time of assay. Plasma and urine samples were assayed for dalbavancin using validated LC/MS/MS methods. […] The peak concentration (Cmax) values were obtained directly from the observed data. The area under the plasma concentration-time curve (AUC) was calculated using the linear trapezoidal rule. Clearance (CL) was computed as dose/AUC. The elimination half life (t1/2) was estimated by linear regression of the log-linear portion of the log concentration versus time curve. Estimates of the volume of distribution (VZ) was calculated using the regression parameters, while the volume of distribution at steady state (Vss) was calculated from the area under the first moment curve (AUMC) multiplied by the dose and divided by AUC. The cumulative amount of dalbavancin excreted in urine was determined as the integrand of the urine excretion rate (AURC). CLR, or renal clearance, was calculated as the ratio: CLR=AURC/AUC.

human α-glycoprotein = experiment: Protein binding by ITC; conditions: for Apparent binding affinity Ka: pH 7.4; for Calculated percent Binding to Human α-glycoprotein: protein […]10^−5 M assumed
bacteria = conditions: cited from earlier work
[2] = system: skin and soft tissue infections (SSTI); experiment: Phase II SSTI trial: clinical response (success = cure or improvement); assay type: in vivo, human; conditions: for Clinical success rate at FU, patients with MRSA: MITT population; for Clinical success rate, exploratory subanalysis: patients with deep or complicated SSTI at baseline
Experimental: (§1) This randomized, controlled study evaluated the safety and efficacy of two dose regimens of dalbavancin.
(§2) There were 62 patients randomized into the study; all received at least one dose of study medication. Four study populations were evaluated for safety and efficacy and were defined as follows: The intent-to-treat (ITT) population included all patients who received at least one dose of study drug (all randomized study subjects).
The effectiveness of the three treatment regimens was determined by assessing the patients' clinical response and the documented or presumed microbiological responses. The primary efficacy endpoint was clinical response at the follow-up visit for the clinically evaluable population. Clinical response, for both EOT and FU visits, was categorized as success (cure or improvement) or failure (including indeterminate results). Patients classified as successes must not have received additional systemic antibacterial treatment for their infection. Failure was defined as persistence of one or more local or systemic signs and symptoms of SSTI such that treatment with new or additional systemic antibacterial agents was required for the SSTI.

rat albumin = rat albumin (Rattus norvegicus, UniProt P02770); experiment: Protein binding by ITC; conditions: pH 7.4
Sequence of rat albumin (P02770 25-608): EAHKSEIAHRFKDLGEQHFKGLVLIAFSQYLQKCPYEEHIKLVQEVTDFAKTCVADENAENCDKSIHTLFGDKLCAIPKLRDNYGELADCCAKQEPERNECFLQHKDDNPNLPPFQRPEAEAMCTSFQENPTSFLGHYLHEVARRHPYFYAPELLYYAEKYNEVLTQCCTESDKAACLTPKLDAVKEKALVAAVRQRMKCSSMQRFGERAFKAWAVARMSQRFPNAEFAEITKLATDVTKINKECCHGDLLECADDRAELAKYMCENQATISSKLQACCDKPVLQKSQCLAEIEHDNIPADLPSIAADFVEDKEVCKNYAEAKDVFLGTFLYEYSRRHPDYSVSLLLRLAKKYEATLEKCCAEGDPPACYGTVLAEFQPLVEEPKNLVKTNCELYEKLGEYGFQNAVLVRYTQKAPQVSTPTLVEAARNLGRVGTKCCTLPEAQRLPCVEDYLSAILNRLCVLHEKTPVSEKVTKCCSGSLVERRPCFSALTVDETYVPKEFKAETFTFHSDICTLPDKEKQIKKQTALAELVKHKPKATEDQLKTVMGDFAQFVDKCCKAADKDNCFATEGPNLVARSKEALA

Gram-positive pathogen = experiment: Phase II SSTI trial: microbiological response, all Gram-positive pathogens; assay type: in vivo, human; conditions: for Success rate by pathogen: Total organisms: MITT at FU; for Microbiologic success rate (by patient): MITT population; for Eradication/presumed eradication rate, all organisms: microbiologically-evaluable population at FU
Experimental: as §1, §2
(§3) Microbiological outcome, a secondary efficacy variable, was assessed in the subpopulation of patients who had microbiologically documented SSTI (i.e., at least one identified baseline pathogen). A microbiologic response was assessed for each Gram-positive pathogen identified at baseline (i.e., eradication, presumed eradication, persistence, presumed persistence). For patients for whom follow-up cultures were not performed, the microbiologic responses for baseline pathogens were presumed on the basis of the clinical response. Microbiologic response by patient at the EOT and FU visits was graded as success (i.e., all Gram-positive organisms eradicated or presumed eradicated) or failure (i.e., at least one Gram-positive organism persisted or presumed to have persisted, multiple pathogens with partial eradication). At both the EOT and FU visits, colonization and superinfection were assessed. At the FU visit, a patient's bacteriological response could also include recurrence.

dog albumin = dog albumin (Canis lupus familiaris, UniProt P49822); experiment: Protein binding by ITC; conditions: pH 7.4
Sequence of dog albumin (P49822 25-608): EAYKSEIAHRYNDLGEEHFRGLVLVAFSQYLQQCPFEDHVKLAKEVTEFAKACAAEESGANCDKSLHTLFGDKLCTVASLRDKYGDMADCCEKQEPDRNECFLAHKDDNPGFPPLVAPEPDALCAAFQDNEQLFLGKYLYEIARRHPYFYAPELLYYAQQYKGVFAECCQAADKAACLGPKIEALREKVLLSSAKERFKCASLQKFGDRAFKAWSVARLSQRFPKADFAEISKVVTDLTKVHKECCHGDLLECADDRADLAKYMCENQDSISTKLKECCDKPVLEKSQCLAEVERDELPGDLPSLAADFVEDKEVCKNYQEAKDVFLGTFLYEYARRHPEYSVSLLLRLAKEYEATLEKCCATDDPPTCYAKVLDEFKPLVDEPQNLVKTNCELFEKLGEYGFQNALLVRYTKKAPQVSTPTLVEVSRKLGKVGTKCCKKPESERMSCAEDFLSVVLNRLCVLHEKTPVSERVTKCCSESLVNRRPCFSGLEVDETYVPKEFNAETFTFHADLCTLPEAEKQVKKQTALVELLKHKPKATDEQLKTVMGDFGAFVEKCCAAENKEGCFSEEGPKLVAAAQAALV

[3] = system: Gram-positive isolates, including MRSA; experiment: Dalbavancin MIC of trial isolates; assay type: cell-based; conditions: isolates that persisted after treatment
[4] = system: Methicillin-sensitive S. aureus; experiment: Phase II SSTI trial: microbiological response by pathogen; assay type: in vivo, human; conditions: MITT at FU
Experimental: as §1, §2, §3

[5] = system: Miscellaneous streptococcus species; experiment: as above; assay type: in vivo, human; conditions: MITT at FU
Experimental: as §1, §2, §3

S. aureus = experiment: as above; assay type: in vivo, human; conditions: for Success rate by pathogen: All S. aureus: MITT at FU; for S. aureus eradication rate: microbiologically-evaluable population at FU
Experimental: as §1, §2, §3

streptococci = experiment: In vitro antibacterial activity; assay type: cell-based; conditions: including penicillin-resistant strains
[6] = Rat quantitative tissue distribution study; assay type: in vivo, Sprague-Dawley rats
Experimental: Quantitative tissue distribution studies were conducted to assess the tissue distribution of dalbavancin following a single IV infusion of dalbavancin to male rats.
All samples were analyzed by LSC.

[7] = Phase II SSTI trial: dalbavancin plasma concentrations; assay type: in vivo, human

In the case of `CN[C@H]1C(=O)N[C@@H]2Cc3ccc(cc3)Oc3cc4cc(c3O[C@@H]3O[C@H](C(=O)O)[C@@H](O)[C@H](O)[C@H]3NC(=O)CCCCCCCCC(C)C)Oc3ccc(cc3Cl)[C@@H](O)[C@@H]3NC(=O)[C@H](NC(=O)[C@@H]4NC(=O)[C@@H](NC2=O)c2cc(cc(O)c2Cl)Oc2cc1ccc2O)c1ccc(O)c(c1)-c1c(O[C@H]2O[C@H](CO)[C@@H](O)[C@H](O)[C@@H]2O)cc(O)cc1[C@@H](C(=O)NCCCN(C)C)NC3=O` [Dalbavancin], the “Binding to dipeptide (D-Ala-D-Ala)” value (dipeptide (D-Ala-D-Ala)) is reported as “no evidence of binding”, the “AURC (cumulative amount excreted in urine)” value ([1]; Mean, single 1000 mg IV) is reported as 419 mg and the CL ([1]; Mean, single 1000 mg IV) is reported as 0.0431 ± 0.0074 L/h. The CLR ([1]; Mean, single 1000 mg IV) was 0.018 L/h, the Vz ([1]; Mean, single 1000 mg IV) was 16.0 L and the CLR ([1]; Min, single 1000 mg IV) was 0.0130 L/h. For the same compound, the “Peak concentration of dalbavancin in man” value ([1]; conversion of approximately 300 mg/L) was 165 µM, the Peak plasma concentrations ([1]; immediately following end of infusion, single 1000 mg IV) was “approximately 300 mg/L” and the “Plasma concentrations maintained for at least seven days” value ([1]; single intravenous infusion of 1000 mg) was “above 45 mg/l”. For the same compound, the “Apparent binding affinity Ka” value (human α-glycoprotein; 25° C.) was 1.84 (±0.36) ×10^5 M^−1, the “Apparent binding affinity Ka” value (human α-glycoprotein; 37° C.) was 4.8 (±2.3) ×10^5 M^−1 and the “Calculated percent Binding to Human α-glycoprotein” value (“Calculated percent Binding” below) (human α-glycoprotein; antibiotic 1 μM) was 73.0%. For the same compound, the “Calculated percent Binding” value (human α-glycoprotein; antibiotic 10 μM) was 68.2%, the “Calculated percent Binding” value (human α-glycoprotein; antibiotic 100 μM) was 26.2% and the “Calculated percent Binding” value (human α-glycoprotein; antibiotic 165 μM) was 16.9%. For the same compound, the “Calculated percent Binding” value (human α-glycoprotein; antibiotic 250 μM) was 11.4%, the “Calculated percent Binding” value (human α-glycoprotein; antibiotic 500 μM) was 5.9% and the “Concentrations known to be bactericidal” value (bacteria) was 4 to 32 mg/L. The Clinical success rate ([2]; Clinically evaluable at EOT, single-dose 1100 mg) was 13/16 (61.5) %, the Clinical success rate ([2]; Clinically evaluable at EOT, two-dose 1000/500 mg) was 16/17 (94.1) % and the Clinical success rate ([2]; ITT at EOT, single-dose dalbavancin 1100 mg IV day 1) was 15/20 (75.0) %. The Clinical success rate ([2]; ITT at EOT, two-dose dalbavancin 1000 mg day 1 + 500 mg day 8 IV) was 19/21 (90.5) %, the Clinical success rate ([2]; ITT at FU, single-dose 1100 mg) was 12/20 (60.0) % and the Clinical success rate ([2]; ITT at FU, two-dose 1000/500 mg) was 19/21 (90.5) %. For the same compound, the Clinical success rate ([2]; MITT at EOT, single-dose 1100 mg) was 10/14 (71.4) %, the Clinical success rate ([2]; MITT at EOT, two-dose 1000/500 mg) was 12/13 (92.3) % and the Clinical success rate ([2]; MITT at FU, single-dose 1100 mg) was 7/14 (50.0) %. The Clinical success rate ([2]; MITT at FU, two-dose 1000/500 mg) was 12/13 (92.3) %, the “Clinical success rate at FU, patients with MRSA” value ([2]; single-dose dalbavancin) was 50% and the “Clinical success rate at FU, patients with MRSA” value ([2]; two-dose dalbavancin) was 80%. The Clinical success rate ([2]; Microbiologically evaluable at EOT, single-dose 1100 mg) was 10/13 (76.9) %, the Clinical success rate ([2]; Microbiologically evaluable at EOT, two-dose 1000/500 mg) was 10/11 (90.9) % and the Clinical success rate ([2]; Microbiologically evaluable at FU, single-dose 1100 mg) was 6/11 (54.5) %. For the same compound, the Clinical success rate ([2]; Microbiologically evaluable at FU, two-dose 1000/500 mg) was 10/11 (90.9) %, the “Clinical success rate, exploratory subanalysis” value ([2]; single-dose dalbavancin) was 58.3% and the “Clinical success rate, exploratory subanalysis” value ([2]; two-dose dalbavancin) was 93.8%. For the same compound, the “Apparent binding affinity Ka” value (rat albumin; 25° C.) was 3.1 (±0.5) ×10^5 M^−1, the “Apparent binding affinity Ka” value (rat albumin; 37° C.) was 2.8 (±1.8) ×10^5 M^−1 and the “Success rate by pathogen: Total organisms” value (Gram-positive pathogen; single-dose 1100 mg) was 7/16 (43.8%). The “Success rate by pathogen: Total organisms” value (Gram-positive pathogen; two-dose 1000/500 mg) was 14/16 (87.5%), the “Microbiologic success rate (by patient)” value (Gram-positive pathogen; EOT, single-dose 1100 mg) was 5/14 (35.7) % and the “Microbiologic success rate (by patient)” value (Gram-positive pathogen; EOT, two-dose 1000/500 mg) was 10/13 (76.9) %. The “Microbiologic success rate (by patient)” value (Gram-positive pathogen; FU, single-dose 1100 mg) was 3/14 (21.4) %, the “Microbiologic success rate (by patient)” value (Gram-positive pathogen; FU, two-dose 1000/500 mg) was 9/13 (69.2) % and the “Microbiologic success rates, summary over both visits (EOT, FU)” value (Gram-positive pathogen; microbiologically-evaluable and MITT populations, single dose of dalbavancin) was less than 40%. For the same compound, the “Eradication/presumed eradication rate, all organisms” value (Gram-positive pathogen; single-dose dalbavancin) was 58.3% and 58%, the “Eradication/presumed eradication rate, all organisms” value (Gram-positive pathogen; two-dose dalbavancin) was 92.3% and 92% and the “Apparent binding affinity Ka” value (dog albumin; 25° C.) was 0.62 (±0.09) ×10^5 M^−1. For the same compound, the “Apparent binding affinity Ka” value (dog albumin; 37° C.) was 0.50 (±0.13) ×10^5 M^−1, the “Change in dalbavancin MIC of isolates that persisted” value [3] was “no change in dalbavancin MIC” and the “Success rate by pathogen: Methicillin-sensitive” value ([4]; single-dose 1100 mg) was 2/7 (29%). For the same compound, the “Success rate by pathogen: Methicillin-sensitive” value ([4]; two-dose 1000/500 mg) was 5/6 (83%), the “Success rate by pathogen: Miscellaneous streptococcus species” value ([5]; single-dose 1100 mg) was 2/3 (67%) and the “Success rate by pathogen: Miscellaneous streptococcus species” value ([5]; two-dose 1000/500 mg) was 4/4 (100%). For the same compound, the “Success rate by pathogen: All S. aureus” value (S. aureus; single-dose 1100 mg) was 5/13 (38%), the “Success rate by pathogen: All S. aureus” value (S. aureus; two-dose 1000/500 mg) was 9/11 (82%) and the “S. aureus eradication rate” value (S. aureus; single-dose dalbavancin) was 50%. The “S. aureus eradication rate” value (S. aureus; two-dose dalbavancin) was 90%, the “Activity relative to teicoplanin or vancomycin” value (streptococci) was “better activity against streptococci, including penicillin-resistant strains, than teicoplanin or vancomycin” and the “Dose recovered in the bile” value ([6]; bile duct cannulated rats, over 384 h after the dose) was ~11 % of the dose. The “Concentrations of radioactivity in the CNS” value ([6]; healthy rats) was “low but detectable”, the “Time by which all tissues had quantifiable drug-derived radioactivity” value ([6]; male rats, single IV infusion 20 mg/kg) was no more than 12 h and the “Skin penetration: drug-derived radioactivity in skin relative to plasma” value ([6]; rats) was “as high as or higher than in plasma”. The Tissue accumulation ([6]; rats, through 70 days) was “did not accumulate in any single tissue, organ, or blood cellular component”, the “Dalbavancin plasma level maintained” value ([7]; additional week, with an additional dose of 500 mg IV on day 8) was “greater than 20 mg/l” and the “Mean dalbavancin plasma concentration (mean±SD)” value ([7]; single-dose regimen 1100 mg IV, Study day 8) was 31.1 ± 7.1 mg/L. The “Mean dalbavancin plasma concentration (mean±SD)” value ([7]; single-dose regimen, Study day 10) was 25.2 ± 4.8 mg/L, the “Mean dalbavancin plasma concentration (mean±SD)” value ([7]; single-dose regimen, Study day 24) was 10.2 ± 3.5 mg/L and the “Dalbavancin plasma concentration, all patients” value ([7]; through the first week following the first dose) was “greater than 20 mg/l”. The “Mean dalbavancin plasma concentration (mean±SD)” value ([7]; two-dose regimen 1000/500 mg IV, Study day 8 (prior to the second dose)) was 30.4 ± 8.2 mg/L, the “Mean dalbavancin plasma concentration (mean±SD)” value ([7]; two-dose regimen, Study day 20) was 21.2 ± 10.0 mg/L and the “Mean dalbavancin plasma concentration (mean±SD)” value ([7]; two-dose regimen, Study day 34) was 9.0 ± 4.4 mg/L.
